# Experimental data: PubChem BioAssay AID1963873 (Molecular Pharmacology Branch, DTP, NCI, 2024)
# Tested on: 276233-004-R-J1-PDC KRAS spheroids with HUVEC/MSC, viability
# Assay: Anticancer human tumor 276233-004-R-J1-PDC patient-derived colon adenocarcinoma cell line growth inhibition [KRAS2]
# Settings: for viability, T/C: stronger effect = lower value
# In short: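 KRAS-mutant tumor cells were grown as spheroids with HUVEC endothelial cells and human MSCs as stroma. Targeted agents were tested alone and with KRAS pathway inhibitors. Doses started at or near clinical Cmax, or 10 microM, descending half-log.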
# [1] = curve of first compound, second compound 0.1 µM
# [2] = curve of first compound, second compound 0.316 µM
# [3] = curve of first compound, second compound 1 µM
# [4] = curve of first compound, second compound 3.16 µM
# [5] = curve of first compound, second compound 10 µM
# [6] = second compound 0.1 µM, first compound 0.0316 µM
# [7] = second compound 0.1 µM, first compound 0.1 µM
# [8] = second compound 0.1 µM, first compound 0.316 µM
# [9] = second compound 0.1 µM, first compound 1 µM
# [10] = second compound 0.1 µM, first compound 3.16 µM
# [11] = second compound 0.1 µM, first compound 10 µM
# [12] = second compound 0.316 µM, first compound 0.0316 µM
# [13] = second compound 0.316 µM, first compound 0.1 µM
# [14] = second compound 0.316 µM, first compound 0.316 µM
# [15] = second compound 0.316 µM, first compound 1 µM
# [16] = second compound 0.316 µM, first compound 3.16 µM
# [17] = second compound 0.316 µM, first compound 10 µM
# [18] = second compound 1 µM, first compound 0.0316 µM
# [19] = second compound 1 µM, first compound 0.1 µM
# [20] = second compound 1 µM, first compound 0.316 µM
# [21] = second compound 1 µM, first compound 1 µM
# [22] = second compound 1 µM, first compound 3.16 µM
# [23] = second compound 1 µM, first compound 10 µM
# [24] = second compound 3.16 µM, first compound 0.0316 µM
# [25] = second compound 3.16 µM, first compound 0.1 µM
# [26] = second compound 3.16 µM, first compound 0.316 µM
# [27] = second compound 3.16 µM, first compound 1 µM
# [28] = second compound 3.16 µM, first compound 3.16 µM
# [29] = second compound 3.16 µM, first compound 10 µM
# [30] = second compound 10 µM, first compound 0.0316 µM
# [31] = second compound 10 µM, first compound 0.1 µM
# [32] = second compound 10 µM, first compound 0.316 µM
# [33] = second compound 10 µM, first compound 1 µM
# [34] = second compound 10 µM, first compound 3.16 µM
# [35] = second compound 10 µM, first compound 10 µM
# 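Note: cells exposed to agents for seven days before viability read.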
# 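Throughout, for viability, T/C: 100% = DMSO vehicle control wells and lower values mean fewer viable cells.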
Structure (SMILES),IC50 [1],IC50 [2],IC50 [3],IC50 [4],"viability, T/C [6]","viability, T/C [7]","viability, T/C [8]","viability, T/C [9]","viability, T/C [10]","viability, T/C [12]","viability, T/C [13]","viability, T/C [14]","viability, T/C [15]","viability, T/C [16]","viability, T/C [18]","viability, T/C [19]","viability, T/C [20]","viability, T/C [21]","viability, T/C [22]","viability, T/C [24]",also measured
COc1cc2nccc(Oc3ccc(NC(=O)C4(C(=O)Nc5ccc(F)cc5)CC4)cc3)c2cc1OC + COc1cc2nc(C)nc(NC(C)c3cc(N)cc(C(F)(F)F)c3)c2cc1OC1CCOC1,> 10 µM,> 10 µM,> 10 µM,> 10 µM,74.9%,98.7%,87.2%,92%,78.9%,85.9%,80.8%,111%,99.7%,79.3%,84.7%,85.7%,88.6%,71.4%,60.2%,75.8%,"IC50 [5]: < 0.0316 µM; viability, T/C [11]: 98.8%; viability, T/C [17]: 101%; viability, T/C [23]: 110%; viability, T/C [25]: 81.1%; viability, T/C [26]: 103%; viability, T/C [27]: 60.8%; viability, T/C [28]: 44.2%; viability, T/C [29]: 98.3%; viability, T/C [30]: 22.5%; viability, T/C [31]: 17.7%; viability, T/C [32]: 19.5%; viability, T/C [33]: 11.5%; viability, T/C [34]: 1.3%; viability, T/C [35]: 26.8%"
CC(C)NCC(C(=O)N1CCN(c2ncnc3c2C(C)CC3O)CC1)c1ccc(Cl)cc1 (stereo not given),,,,,,,,,,,,,,,,,,,,,"viability, T/C (compound 0.0316 µM): 91% [middle of 5 runs]; viability, T/C (compound 0.1 µM): 91.5% [middle of 5 runs]; viability, T/C (compound 0.316 µM): 79.8% [middle of 5 runs]; viability, T/C (compound 10 µM): 73.1% [middle of 5 runs]; IC50 (curve of compound): > 10 µM"
O=C(c1cc(Cc2n[nH]c(=O)c3ccccc23)ccc1F)N1CCN(C(=O)C2CC2)CC1 + COc1cc2nc(C)nc(NC(C)c3cc(N)cc(C(F)(F)F)c3)c2cc1OC1CCOC1,> 10 µM,> 10 µM,> 10 µM,> 10 µM,89.7%,102%,92.5%,96%,103%,91.1%,100%,98%,88.9%,87.3%,102%,111%,96.8%,89.2%,96.8%,71.4%,"IC50 [5]: 0.11 µM; viability, T/C [11]: 86.5%; viability, T/C [17]: 75.8%; viability, T/C [23]: 86.3%; viability, T/C [25]: 77.8%; viability, T/C [26]: 85.8%; viability, T/C [27]: 66%; viability, T/C [28]: 68.3%; viability, T/C [29]: 58%; viability, T/C [30]: 98.9%; viability, T/C [31]: 45.8%; viability, T/C [32]: 40.9%; viability, T/C [33]: 35.5%; viability, T/C [34]: 26%; viability, T/C [35]: 21.6%"
CC(=O)OC12COC1CC(O)C1(C)C(=O)C(O)C3=C(C)C(OC(=O)C(O)C(NC(=O)OC(C)(C)C)c4ccccc4)CC(O)(C(OC(=O)c4ccccc4)C21)C3(C)C (stereo not given) + CNCc1ccccc1-c1csc(C(C)Nc2nc(C)nc3cc(OC)c(OC)cc23)c1,> 3.16 µM,> 3.16 µM,> 3.16 µM,0.0216 µM,96.3%,83.4%,81.1%,105%,87.5%,86.1%,77%,87.8%,93.8%,95.7%,91.4%,89.9%,111%,119%,117%,0.58%,"IC50 [5]: < 0.01 µM; viability, T/C (second compound 0.1 µM, first compound 0.01 µM): 102%; viability, T/C (second compound 0.316 µM, first compound 0.01 µM): 92%; viability, T/C (second compound 1 µM, first compound 0.01 µM): 103%; viability, T/C (second compound 3.16 µM, first compound 0.01 µM): 105%; viability, T/C [25]: 5.25%; viability, T/C [26]: 1.73%; viability, T/C [27]: 1.78%; viability, T/C [28]: 104%; viability, T/C (second compound 10 µM, first compound 0.01 µM): 4.38%; viability, T/C [30]: 2.71%; viability, T/C [31]: 6.51%; viability, T/C [32]: 1.17%; viability, T/C [33]: 110%; viability, T/C [34]: 0.46%"
CC1(C)CCC(CN2CCN(c3ccc(C(=O)NS(=O)(=O)c4ccc(NCC5CCOCC5)c([N+](=O)[O-])c4)c(Oc4cnc5[nH]ccc5c4)c3)CC2)=C(c2ccc(Cl)cc2)C1 + C=CC(=O)N1CCN(c2nc(OCC3CCCN3C)nc3c2CCN(c2cccc4cccc(C)c24)C3)CC1CC#N,> 10 µM,8.09 µM,3.05 µM,< 0.0316 µM,80.3%,113%,85.5%,86.2%,96.6%,102%,89%,87.1%,126%,82.1%,83.7%,111%,90.5%,100%,48.4%,47.6%,"IC50 (curve of first compound, second compound 0.0316 µM): > 10 µM; viability, T/C (second compound 0.0316 µM, first compound 0.0316 µM): 90.7%; viability, T/C (second compound 0.0316 µM, first compound 0.1 µM): 102%; viability, T/C (second compound 0.0316 µM, first compound 0.316 µM): 113%; viability, T/C (second compound 0.0316 µM, first compound 1 µM): 94.4%; viability, T/C (second compound 0.0316 µM, first compound 3.16 µM): 88%; viability, T/C (second compound 0.0316 µM, first compound 10 µM): 56%; viability, T/C [11]: 61.4%; viability, T/C [17]: 42.7%; viability, T/C [23]: 22.1%; viability, T/C [25]: 42.6%; viability, T/C [26]: 41.9%; viability, T/C [27]: 23.2%; viability, T/C [28]: 0.96%; viability, T/C [29]: 0.77%"
